These results are taken from patent publication US20120077803A1, “Uses Of NK Receptor Antagonists” (NOVARTIS AG, priority 2009, published 2012).

SMILES strings stand for the structures.

Test [1] relates to dogs with flea allergic dermatitis. Nature of the test: Skin lesion scores (total lesion score) in dogs with flea-allergic dermatitis. The format is in vivo, Beagle dogs. To be noted: Prednisolone 10 mg/day orally. The protocol: (§1) Flea-allergic laboratory Beagle dogs are infested with fleas. Fifty (50) Ctenocephalides felis fleas, 18 to 20 days old are released on the back of every dog on D1. Dogs are combed 48 hours (D3) after infestation to reduce the number of fleas (reduction of allergen charge).
Skin observations: before flea infestations (D −1) all dogs are typically examined to establish a baseline score for erythema, papules, crusts, scales, alopecia, and excoriation. From D1, daily clinical observations are performed. Each lesion is typically graded using a scale from 0 to 3:
0=no signs 1=mild 2=moderate 3=severe
(§2) Skin lesions are allowed to develop until the total lesion score reaches ˜20. The Test Compound is then given orally at 50, 150 and 300 mg/day, divided into 2 doses, for 5 days. Prednisolone (10 mg/day, orally) is used as a comparator.
Erythema: is typically an acute clinical sign of cutaneous inflammation defined as redness of the skin caused by capillary congestion which can be aggravated by scratching. Excoriation: is typically a punctuate or linear abrasion produced by mechanical means, usually involving only the epidermis but not uncommonly reaching the papillary dermis. […] Papule: is typically a circumscribed, solid elevation with no visible fluid, varying in size from a pinhead to 1 cm. […], formed when there is a high break in the follicle wall. In the presence of bacteria, papules become pustules. Crusts: are typically dried serum, pus, or blood usually mixed with epithelial and sometimes bacterial debris. Scales: are dry or greasy laminated masses of keratin.
(§3) Lesion scores and Actical™ measurement values are typically observed on the following days: • Pre-value: before challenge with fleas • the day of challenge with fleas (Actical™ measurements only); • D1: the day when the total lesion score reached a sufficiently high value (average lesion score 20) and treatment of the animal started. • D2 to D6,
(§4) In the treatment group, lesion scores were taken from 8 dogs. Actical™ measurements were also taken from 6 of these dogs.
• Erythema*, • Excoriations*, • Papules/pustules • Self induced alopecia^o, and • Scales, • Erythema and excoriations are related to pruritus • Self induced alopecia is also related to pruritus but the improvement is […] after several weeks of treatment.
Day 1 of treatment when dogs reached a sufficient lesion score to initiate treatment (average 20). Pre-values (baseline).

Test [2] has the same test system. Nature of the test: Pruritus intensity by Actical activity monitors in flea allergic dogs. The test is classed as in vivo, Beagle dogs. To be noted: Prednisolone 10 mg/day orally; for Actical day, mean (standard deviation): 6am-6pm; for Actical night, mean (standard deviation): 6pm-6am. The protocol: as §1
Pruritus intensity: Pruritus intensity is evaluated using activity monitors (Actical™: Actiwatch™; Cambridge Neuorotechnology Ltd, Papworth Everard, UK) according to Nuttall and McEwan. (Nuttal T and McEwan N, “Objective measurement of pruritus in dogs: a preliminary study using activity monitors”. ESVD, 2006, 17 348-351). The physical activity monitors, mounted on collars, are placed around the dog's neck and tightened to the extent that they more with the skin but not so that they compress the underlying tissues. They were put on the dogs on D −5. […] This typically allows to see the difference in activity when the dogs have fleas and are developing pruritic and inflammatory lesions (i.e. dermatitis) and then again their activity during treatment with either the Test Compound or Prednisolone. The activity monitors are typically removed at the end of each phase on D12. Activity monitors measure the movement average within 15 seconds,
as §2, §3, §4

With `C[C@]12C=CC(=O)C=C1CC[C@@H]1[C@@H]2[C@@H](O)C[C@@]2(C)[C@H]1CC[C@]2(O)C(=O)CO` [Prednisolone, reference compound], the “Total score ctb (total lesion score compared to baseline), mean (standard deviation)” value in test [1] (day 2) is −5.6 (6.3); in test [1] (day 3), −7.9 (6.7); in test [1] (day 4) it was −9.2 (6.3); in test [1] (day 5) it was −9.9 (4.8); in test [1] (day 6) it was −11.8 (6.1). For the same molecule, the “Actical day, mean (standard deviation)” value in test [2] (day 1 (treatment start)) is 74 (20) Average activity counts every 15 secs; in test [2] (day 2) it was 66 (50) Average activity counts every 15 secs; in test [2] (day 3), 49 (33) Average activity counts every 15 secs; in test [2] (day 4) it was 54 (22) Average activity counts every 15 secs; in test [2] (day 5), 47 (24) Average activity counts every 15 secs; in test [2] (day 6), 41 (14) Average activity counts every 15 secs. The “Actical day, mean (standard deviation)” value is given as 74 (22) Average activity counts every 15 secs in test [2] (fleas (day of challenge)) and 40 (10) Average activity counts every 15 secs in test [2] (pre (before exposure to fleas)). Moreover, the “Actical night, mean (standard deviation)” value in test [2] (Fleas (day of challenge)) was 8.6 (3.5) Average activity counts every 15 secs; in test [2] (Pre (before exposure to fleas)) it was 7.9 (4.4) Average activity counts every 15 secs; in test [2] (day 1 (treatment start)), 16.2 (2.9) Average activity counts every 15 secs; in test [2] (day 2) it was 6.8 (4.1) Average activity counts every 15 secs; in test [2] (day 3), 5.1 (2.8) Average activity counts every 15 secs; in test [2] (day 4) it was 7.3 (3.3) Average activity counts every 15 secs. Besides, the “Actical night, mean (standard deviation)” value was 4.8 (2.2) Average activity counts every 15 secs in test [2] (day 5) and 5.3 (1.7) Average activity counts every 15 secs in test [2] (day 6).
